Source: US20230303552A1, “ARYLSULFONYL DERIVATIVES AND THEIR USE AS MUSCARINIC ACETYLCHOLINE RECEPTOR M5 INHIBITORS” (Vanderbilt University, priority 2020, published 2023)

Biological target: T1, human M5 receptors (hM5) (Homo sapiens, UniProt P08912)
T1 construct: expressed in transfected cells
T1 sequence (P08912 1-532): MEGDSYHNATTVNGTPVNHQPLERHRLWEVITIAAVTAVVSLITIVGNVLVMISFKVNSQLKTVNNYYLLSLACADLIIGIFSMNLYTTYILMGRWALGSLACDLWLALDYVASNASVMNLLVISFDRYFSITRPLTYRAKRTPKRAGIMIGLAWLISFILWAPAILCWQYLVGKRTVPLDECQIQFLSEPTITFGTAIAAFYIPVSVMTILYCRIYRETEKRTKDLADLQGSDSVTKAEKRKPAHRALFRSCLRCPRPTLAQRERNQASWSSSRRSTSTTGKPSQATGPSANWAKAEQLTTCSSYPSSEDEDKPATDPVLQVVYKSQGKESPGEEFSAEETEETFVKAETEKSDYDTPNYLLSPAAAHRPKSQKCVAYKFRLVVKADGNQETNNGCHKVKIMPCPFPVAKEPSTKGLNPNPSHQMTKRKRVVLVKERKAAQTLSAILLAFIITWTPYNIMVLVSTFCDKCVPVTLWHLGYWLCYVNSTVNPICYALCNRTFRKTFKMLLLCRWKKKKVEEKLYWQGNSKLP
Experiment: Cell-based functional calcium mobilization assay of mAChR M5 activity (inhibition of EC80 acetylcholine response) in CHO cells
Conditions: CHO cells stably expressing hM5; for IC50: calcium flux (Fluo-4), EC80 acetylcholine addition; for EC80 MIN: minimum of EC80 acetylcholine response, normalized to maximum acetylcholine response
Summary of the method: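 CHO cells stably expressing human M5, loaded with Fluo-4 AM in HBSS/20 mM HEPES/2.5 mM probenecid pH 7.4. Compound added 140 s before acetylcholine EC20, then EC80 added 125 s later. Calcium flux normalized to maximal acetylcholine response; IC50 from ten-point curves in the EC80 window.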

SMILES | IC50 [nM] | EC80 MIN [%]
O=C(Nc1ccc2scnc2c1)C1CCN(S(=O)(=O)c2ccccc2OC(F)(F)F)CC1 [Compound 53, N-(benzo[d]thiazol-5-yl)-1-((2-(trifluoromethoxy)phenyl)sulfonyl)piperidine-4-carboxamide] | 4110 | 4
O=C(Nc1ccc2scnc2c1)C1CCN(S(=O)(=O)c2cccc(C(F)(F)F)c2)CC1 [Compound 54, N-(benzo[d]thiazol-5-yl)-1-((3-(trifluoromethyl)phenyl)sulfonyl)piperidine-4-carboxamide] | > 10000 | 51
O=C(Nc1ccc2scnc2c1)[C@H]1CCN(S(=O)(=O)c2ccc3c(c2)CCO3)C1 [Compound 55, (S)-N-(benzo[d]thiazol-5-yl)-1-((2,3-dihydrobenzofuran-5-yl)sulfonyl)pyrrolidine-3-carboxamide] | 361 | 3
O=C(Nc1ccc2scnc2c1)[C@H]1CCN(S(=O)(=O)c2cc3c(cc2F)OCC3)C1 [Compound 56, (S)-N-(benzo[d]thiazol-5-yl)-1-((6-fluoro-2.3-dihydrobenzofuran-5-yl)sulfonyl)pyrrolidine-3-carboxamide] | 719 | 2
O=C(Nc1ccc2scnc2c1)C1CCN(S(=O)(=O)c2ccc3c(c2Br)CCO3)CC1 [Compound 57, N-(benzo[d]thiazol-5-yl)-1-((4-bromo-2,3-dihydrobenzofuran-5-yl)sulfonyl)piperidine-4-carboxamide] | 333 | 2
O=C(Nc1ccc2scnc2c1)C1CCN(S(=O)(=O)c2ccc(Br)c3c2OCC3)CC1 [Compound 58, N-(benzo[d]thiazol-5-yl)-1-((4-bromo-2,3-dihydrobenzofuran-7-yl)sulfonyl)piperidine-4-carboxamide] | > 10000 | 34
O=C(Nc1ccc2scnc2c1)[C@@H]1CCN(S(=O)(=O)c2ccc3c(c2Br)CCO3)C1 [Compound 59, (R)-N-(benzo[d]thiazol-5-yl)-1-((4-bromo-2,3-dihydrobenzofuran-5-yl)sulfonyl)pyrrolidine-3-carboxamide] | 487 | 2
O=C(Nc1ccc2scnc2c1)[C@@H]1CCN(S(=O)(=O)c2ccc(Br)c3c2OCC3)C1 [Compound 60, (R)-N-(benzo[d]thiazol-5-yl)-1-((4-bromo-2,3-dihydrobenzofuran-7-yl)sulfonyl)pyrrolidine-3-carboxamide] | > 10000 | 31
O=C(Nc1ccc2scnc2c1)C1CCN(S(=O)(=O)c2c(Cl)ccc3nonc23)CC1 [Compound 61, N-(benzo[d]thiazol-5-yl)-1-((5-chlorobenzo[c][1,2,5]oxadiazol-4-yl)sulfonyl)piperidine-4-carboxamide] | > 10000 | 60
COc1ccc(S(=O)(=O)N2CCC(C(=O)Nc3ccc4scnc4c3)CC2)c(C)c1 [Compound 62, N-(benzo[d]thiazol-5-yl)-1-((4-methoxy-2-methylphenyl)sulfonyl)pipe ridine-4-carboxamide] | > 10000 | 22
O=C(Nc1ccc2scnc2c1)C1CCN(S(=O)(=O)c2cccc(F)c2)CC1 [Compound 63, N-(benzo[d]thiazol-5-yl)-1-((3-fluorophenyl)sulfonyl)piper idine-4-carboxamide] | 2550 | 2
O=C(Nc1ccc2scnc2c1)C1CCN(S(=O)(=O)c2ccccc2C(F)(F)F)CC1 [Compound 64, N-(benzo[d]thiazol-5-yl)-1-((2-(trifluoromethyl)phenyl)sulfonyl)piperidine-4-carboxamide] | > 10000 | 2
O=C(Nc1ccc2scnc2c1)C1CCN(S(=O)(=O)c2ccccc2Cl)CC1 [Compound 65, N-(benzo[d]thiazol-5-yl)-1-((2-chlorophenyl)sulfonyl)piper idine-4-carboxamide] | 652 | 2
O=C(Nc1ccc2scnc2c1)C1CCN(S(=O)(=O)c2ccc(Cl)cc2)CC1 [Compound 66, N-(benzo[d]thiazol-5-yl)-1-((4-chlorophenyl)sulfonyl)piper idine-4-carboxamide] | > 10000 | 16
O=C(Nc1ccc2scnc2c1)C1CCN(S(=O)(=O)c2ccc(F)cc2)CC1 [Compound 67, N-(benzo[d]thiazol-5-yl)-1-((4-fluorophenyl)sulfonyl)piper idine-4-carboxamide] | > 10000 | 7
O=C(Nc1ccc2scnc2c1)C1CCN(S(=O)(=O)c2ccccn2)CC1 [Compound 68, N-(benzo[d]thiazol-5-yl)-1-(pyridin-2-ylsulfonyl)piperidine-4-carboxamide] | > 10000 | 39
O=C(Nc1ccc2scnc2c1)[C@@H]1CCN(S(=O)(=O)c2cc(I)c3c(c2)CCO3)C1 [Compound 74, (R)-N-(benzo[d]thiazol-5-yl)-1((7-iodo-2,3-dihydrobenzofuran-5-yl)sulfonyl)pyrrolidine-3-carboxamide] | 895 | 2
O=C(Nc1ccc2scnc2c1)[C@@H]1CCN(S(=O)(=O)c2ccc(Cl)nc2)C1 [Compound 76, (R)-N-(benzo[d]thiazol-5-yl)-1-((6-chloropyridin-3-yl)sulfonyl)pyrrolidine-3-carboxamide] | > 10000 | 23
C[C@H]1CN(S(=O)(=O)c2ccc3c(c2)CCO3)C[C@@H]1C(=O)Nc1ccc2scnc2c1 [Compound 78] | 76 | 3
Cc1cc(S(=O)(=O)N2CC[C@@H](C(=O)Nc3ccc4scnc4c3)C2)cc2c1OCC2 [Compound 83, (R)-N-(benzo[d]thiazol-5-yl)-1-((7-methyl-2,3-dihydrobenzofuran-5-yl)sulfonyl)pyrrolidine-3-carboxamide] | 1460 | 3

The next lines start with the values.

IC50 [nM] | EC80 MIN [%] | SMILES
> 10000 |  | CN(C(=O)C1CCN(S(=O)(=O)c2ccc3c(c2)CCO3)CC1)c1ccc2scnc2c1 [Compound 84, N-(Benzo[d]thiazol-5-yl)-1-((2,3-Dihydrobenzofuran-5-yl)Sulfonyl)-N-Methylpiperidine-4-Carboxamide]
1750 | 3 | CC(=O)N(C(=O)C1CCN(S(=O)(=O)c2ccc3c(c2)CCO3)CC1)c1ccc2scnc2c1 [Compound 85, N-Acetyl-N-(Benzo[d]thiazol-5-yl)-1-((2,3-Dihydrobenzofuran-5-yl)Sulfonyl)Piperidine-4-Carboxamide]
> 10000 | 79 | O=C(Nc1cnc2cc[nH]c2c1)C1CCN(S(=O)(=O)c2ccc3c(c2)CCO3)CC1 [Compound 89, 1-((2,3-dihydrobenzofuran-5-yl)sulfonyl)-N-(1H-pyrrolo[3,2-b]pyridin-6-yl)piperidine-4-carboxamide]
> 10000 | 69 | O=C(Nc1cnc2[nH]ccc2c1)C1CCN(S(=O)(=O)c2ccc3c(c2)CCO3)CC1 [Compound 90, 1-((2,3-dihydrobenzofuran-5-yl)sulfonyl)-N-(1H-pyrrolo[2,3-b]pyridin-5-yl)piperidine-4-carboxamide]
138 | 17 | Cc1nc2cc(NC(=O)C3CCN(S(=O)(=O)c4ccc5c(c4)CCO5)CC3)ccc2s1 [Compound 91, 1-((2,3-Dihydrobenzofuran-5-yl)Sulfonyl)-N-(2-Methylbenzo[d]thiazol-5-yl)Piperidine-4-Carboxamide]
129 | 14 | O=C(Nc1ccc2snnc2c1)C1CCN(S(=O)(=O)c2ccc3c(c2)CCO3)CC1 [Compound 100]
> 10000 | 49 | Cc1cc2scnc2cc1NC(=O)C1CCN(S(=O)(=O)c2ccc3c(c2)CCO3)CC1 [Compound 101, 1-((2,3-dihydrobenzofuran-5-yl)sulfonyl)-N-(6-methylbenzo[d]thiazol-5-yl)piperidine-4-carboxamide]
> 10000 | 56 | O=C(Nc1cnc2scnc2c1)C1CCN(S(=O)(=O)c2ccc3c(c2)CCO3)CC1 [Compound 102, 1-((2,3-dihydrobenzofuran-5-yl)sulfonyl)-N-(thiazolo[5,4-b]pyridin-6-yl)piperidine-4-carboxamide]
> 10000 | 3 | CC1(C(=O)Nc2ccc3scnc3c2)CCN(S(=O)(=O)c2ccc3c(c2)CCO3)CC1 [Compound 104, N-(benzo[d]thiazol-5-yl)-1-((2,3-dihydrobenzofuran-5-yl)sulfonyl)-4-methylpiperidine-4-carboxamide]
> 10000 | 25 | CC1(C(=O)Nc2ccc3scnc3c2)CCN(S(=O)(=O)c2ccc3ncsc3c2)CC1 [Compound 105, N-(benzo[d]thiazol-5-yl)-1-(benzo[d]thiazol-6-ylsulfonyl)-4-methylpiperidine-4-carboxamide]
> 10000 | 35 | CC1(C(=O)Nc2ccc3scnc3c2)CCN(S(=O)(=O)c2ccc(Cl)nc2)CC1 [Compound 106, N-(benzol[d]thiazol-5-yl)-1-((6-chloropyridin-3-yl)sulfonyl)-4-methylpiperidine-4-carboxamide]
